The assay deals with EZH2 (methyltransferase component of PRC2). Kind of assay: cells. As to conditions: Homo sapiens, HEK-293T, 48 h, read-out: Cell IC50 (H3K27me3) (nM).
Broadly, the IC50 is the point on the concentration scale where inhibition reaches its midpoint. As to `CSc1cc(C)n(C)c(=O)c1CN1CCN(C)c2c(Cl)cc(-c3c(C)noc3C)c(Cl)c2C1=O` [compound 22, 22], the half-maximal inhibitory concentration (IC50) stood at 1550 nM.

For the compound `CSc1cc(C)[nH]c(=O)c1CN1CCN(C)c2c(Cl)cc(-c3c(C)noc3C)c(Cl)c2C1=O` [compound 21, TDI-11904], the IC50 turned out to be 6 nM.

As to `CSc1cc(C)n(C)c(=O)c1CN1CCNc2c(Cl)cc(-c3c(C)noc3C)c(Cl)c2C1=O` [compound 23, 23], the IC50 was 167 nM.

Source of the values: article doi:10.1101/2021.06.10.447852v1 (biorxiv, 2021).
